From PubChem BioAssay (NCI) come the findings set out here.

SMILES strings stand for the structures.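 Each compound was tested at five concentrations against cells in 96-well plates for 48 hours. TGI marks complete inhibition of growth.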 Where only a bound is given, the exact number is not on record here.

One test concerns 786-0 renal. As to the kind of experiment: growth of human tumour cells (NCI), 48 h.
`Cc1c(O)c(C)c2c(C)cn(C(=O)C(C)(C)C)c2c1C` gave a TGI of 36.3 µM.

As for `CCc1nc2ccc(N=NN(C)C)cc2[nH]1`, the TGI was more than 100 µM.

In turn, `CC(C)(C)c1cc(C(CO)OCCOCCO)cc(C(C)(C)C)c1O` (stereo not given) displayed a TGI of more than 100 µM.

For the molecule `O=C(NCCCN(CCCCN(CCCNC(=O)C(F)(F)F)CCCc1ccccc1)CCCc1ccccc1)C(F)(F)F`, the TGI worked out at 2.86 µM.

In turn, `CCOP(=O)(O)C(C)(C)NC` yielded a TGI of more than 100 µM.

`CC(C)C[C@H]1[C@@H](OCc2ccccc2)COS(=O)N1[C@H](C)c1ccccc1` (stereo not given in full): the TGI turned out to be 36.1 µM.

The subject of another test is A498 renal. As to the kind of experiment: growth of human tumour cells (NCI), 48 h.
Molecule `COc1cc2c3c(c4cc(OC)c(OC)cc4c2cc1OC)C(=O)C1CCC(=O)N1C3` (stereo not given) showed a TGI of more than 100 µM.

`Cc1c(O)c(C)c2c(C)cn(C(=O)C(C)(C)C)c2c1C`: the TGI came to 30 µM.

In turn, `CC(C)(C)c1cc(C(CO)OCCOCCO)cc(C(C)(C)C)c1O` (stereo not given) returned a TGI of more than 100 µM.

For the molecule `CCOP(=O)(O)C(C)(C)NC`, the TGI is more than 100 µM.

In turn, `CC(C)C[C@H]1[C@@H](OCc2ccccc2)COS(=O)N1[C@H](C)c1ccccc1` (stereo not given in full) registered a TGI of 87.2 µM.

Another test deals with CAKI-1 renal. As to the kind of experiment: growth of human tumour cells (NCI), 48 h.
`COc1cc2c3c(c4cc(OC)c(OC)cc4c2cc1OC)C(=O)C1CCC(=O)N1C3` (stereo not given): the TGI is 38.9 µM.

The molecule `CCc1nc2ccc(N=NN(C)C)cc2[nH]1` came in with a TGI of more than 100 µM.

For `CC(C)(C)c1cc(C(CO)OCCOCCO)cc(C(C)(C)C)c1O` (stereo not given), the TGI is more than 100 µM.

`O=C(NCCCN(CCCCN(CCCNC(=O)C(F)(F)F)CCCc1ccccc1)CCCc1ccccc1)C(F)(F)F` came in with a TGI of 3.69 µM.

`CC(C)C[C@H]1[C@@H](OCc2ccccc2)COS(=O)N1[C@H](C)c1ccccc1` (stereo not given in full) showed a TGI of 95.6 µM.

Another test deals with CCRF-CEM leukemia. As to the kind of experiment: growth of human tumour cells (NCI), 48 h.
Molecule `COc1cc2c3c(c4cc(OC)c(OC)cc4c2cc1OC)C(=O)C1CCC(=O)N1C3` (stereo not given) registered a TGI of 30.8 µM.

As for `Cc1c(O)c(C)c2c(C)cn(C(=O)C(C)(C)C)c2c1C`, the TGI was 55.7 µM.

The molecule `CCc1nc2ccc(N=NN(C)C)cc2[nH]1` displayed a TGI of more than 100 µM.

`CC(C)(C)c1cc(C(CO)OCCOCCO)cc(C(C)(C)C)c1O` (stereo not given) yielded a TGI of more than 100 µM.

`O=C(NCCCN(CCCCN(CCCNC(=O)C(F)(F)F)CCCc1ccccc1)CCCc1ccccc1)C(F)(F)F`: the TGI is 18.8 µM.

Take `CCOP(=O)(O)C(C)(C)NC`: the TGI was more than 100 µM.

As for `CC(C)C[C@H]1[C@@H](OCc2ccccc2)COS(=O)N1[C@H](C)c1ccccc1` (stereo not given in full), the TGI worked out at 36.4 µM.

In a further test the test system is COLO 205 colon. Nature of the test: growth of human tumour cells (NCI), 48 h.
On to `COc1cc2c3c(c4cc(OC)c(OC)cc4c2cc1OC)C(=O)C1CCC(=O)N1C3` (stereo not given), for which the TGI is more than 100 µM.

For the molecule `Cc1c(O)c(C)c2c(C)cn(C(=O)C(C)(C)C)c2c1C`, the TGI stood at 30.3 µM.

Turning to `CCc1nc2ccc(N=NN(C)C)cc2[nH]1`, the TGI is more than 100 µM.

The molecule `CC(C)(C)c1cc(C(CO)OCCOCCO)cc(C(C)(C)C)c1O` (stereo not given) had a TGI of more than 100 µM.

Regarding `O=C(NCCCN(CCCCN(CCCNC(=O)C(F)(F)F)CCCc1ccccc1)CCCc1ccccc1)C(F)(F)F`, the TGI was determined as 3.11 µM.

As to `CCOP(=O)(O)C(C)(C)NC`, the TGI was more than 100 µM.

On to `CC(C)C[C@H]1[C@@H](OCc2ccccc2)COS(=O)N1[C@H](C)c1ccccc1` (stereo not given in full), for which the TGI worked out at 30.4 µM.

The subject of another test is EKVX NSCLC. Nature of the test: growth of human tumour cells (NCI), 48 h.
Molecule `Cc1c(O)c(C)c2c(C)cn(C(=O)C(C)(C)C)c2c1C` registered a TGI of 49.7 µM.

On to `CCc1nc2ccc(N=NN(C)C)cc2[nH]1`, for which the TGI is more than 100 µM.

The molecule `CC(C)(C)c1cc(C(CO)OCCOCCO)cc(C(C)(C)C)c1O` (stereo not given) returned a TGI of more than 100 µM.

Turning to `O=C(NCCCN(CCCCN(CCCNC(=O)C(F)(F)F)CCCc1ccccc1)CCCc1ccccc1)C(F)(F)F`, the TGI was determined as 4.23 µM.

The molecule `CCOP(=O)(O)C(C)(C)NC` came in with a TGI of more than 100 µM.

Molecule `CC(C)C[C@H]1[C@@H](OCc2ccccc2)COS(=O)N1[C@H](C)c1ccccc1` (stereo not given in full) gave a TGI of more than 100 µM.

Another test deals with HCC-2998 colon. Nature of the test: growth of human tumour cells (NCI), 48 h.
Consider `COc1cc2c3c(c4cc(OC)c(OC)cc4c2cc1OC)C(=O)C1CCC(=O)N1C3` (stereo not given), for which the TGI is more than 100 µM.

For the molecule `Cc1c(O)c(C)c2c(C)cn(C(=O)C(C)(C)C)c2c1C`, the TGI was found to be 96.6 µM.

Turning to `CCc1nc2ccc(N=NN(C)C)cc2[nH]1`, the TGI was more than 100 µM.

In turn, `O=C(NCCCN(CCCCN(CCCNC(=O)C(F)(F)F)CCCc1ccccc1)CCCc1ccccc1)C(F)(F)F` had a TGI of 3.27 µM.

Molecule `CCOP(=O)(O)C(C)(C)NC` came in with a TGI of more than 100 µM.

A further test has as its system K-562 leukemia. Nature of the test: growth of human tumour cells (NCI), 48 h.
Molecule `COc1cc2c3c(c4cc(OC)c(OC)cc4c2cc1OC)C(=O)C1CCC(=O)N1C3` (stereo not given) returned a TGI of more than 100 µM.

On to `Cc1c(O)c(C)c2c(C)cn(C(=O)C(C)(C)C)c2c1C`, for which the TGI worked out at 98.2 µM.

`CCc1nc2ccc(N=NN(C)C)cc2[nH]1` yielded a TGI of more than 100 µM.

Turning to `CC(C)(C)c1cc(C(CO)OCCOCCO)cc(C(C)(C)C)c1O` (stereo not given), the TGI was more than 100 µM.

`O=C(NCCCN(CCCCN(CCCNC(=O)C(F)(F)F)CCCc1ccccc1)CCCc1ccccc1)C(F)(F)F` displayed a TGI of more than 100 µM.

Take `CCOP(=O)(O)C(C)(C)NC`: the TGI was more than 100 µM.

`CC(C)C[C@H]1[C@@H](OCc2ccccc2)COS(=O)N1[C@H](C)c1ccccc1` (stereo not given in full) displayed a TGI of 35.9 µM.

In the next test the test system is MDA-MB-435. Nature of the test: growth of human tumour cells (NCI), 48 h.
`COc1cc2c3c(c4cc(OC)c(OC)cc4c2cc1OC)C(=O)C1CCC(=O)N1C3` (stereo not given) displayed a TGI of more than 100 µM.

`Cc1c(O)c(C)c2c(C)cn(C(=O)C(C)(C)C)c2c1C` returned a TGI of 30.3 µM.

The molecule `CCc1nc2ccc(N=NN(C)C)cc2[nH]1` registered a TGI of more than 100 µM.

As to `CC(C)(C)c1cc(C(CO)OCCOCCO)cc(C(C)(C)C)c1O` (stereo not given), the TGI was more than 100 µM.

Consider `O=C(NCCCN(CCCCN(CCCNC(=O)C(F)(F)F)CCCc1ccccc1)CCCc1ccccc1)C(F)(F)F`, for which the TGI amounted to 3.35 µM.

Take `CCOP(=O)(O)C(C)(C)NC`: the TGI is more than 100 µM.

Consider `CC(C)C[C@H]1[C@@H](OCc2ccccc2)COS(=O)N1[C@H](C)c1ccccc1` (stereo not given in full), for which the TGI was more than 100 µM.

For the next test, the system named is NCI-H460 lung. Nature of the test: growth of human tumour cells (NCI), 48 h.
In the case of `COc1cc2c3c(c4cc(OC)c(OC)cc4c2cc1OC)C(=O)C1CCC(=O)N1C3` (stereo not given), the TGI was more than 100 µM.

`Cc1c(O)c(C)c2c(C)cn(C(=O)C(C)(C)C)c2c1C` displayed a TGI of 63.8 µM.

In turn, `CCc1nc2ccc(N=NN(C)C)cc2[nH]1` had a TGI of more than 100 µM.

In turn, `O=C(NCCCN(CCCCN(CCCNC(=O)C(F)(F)F)CCCc1ccccc1)CCCc1ccccc1)C(F)(F)F` returned a TGI of 3.27 µM.

For `CCOP(=O)(O)C(C)(C)NC`, the TGI was more than 100 µM.
